Patent US12435087B2, “Modulators of DCN-1 and methods of use thereof” (Cellarity, Inc., priority 2023, dated 2025)
Read-outs that look alike come from different tables or passages of the source.

Target: DCN1 (DCUND1) protein PONY domain (Homo sapiens (Human), UniProt Q96GG9)
Assay: TR-FRET assay (binding to DCN-1, displacement of FAM-labeled probe)
Procedure, shortened: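 Compounds read at 1, 5 and 24 h, 0.1% final DMSO, by TR-FRET between terbium-streptavidin on biotinylated DCN1 PONY domain (E. coli) and a FAM-tagged non-covalent inhibitor probe. Two setups used, 5 nM protein with 20 nM labelled probe, or 0.31 nM protein with 100 nM labelled plus 800 nM unlabelled probe; buffer had TritonX and 200 mM NaCl. % activity relative to high (with probe) and low (without probe) controls.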

[1] = 24 hr after treatment with compound, read-out: TR FRET IC50 24 hr
[2] = TR FRET IC50 1 hr (nM), 1 hr after treatment with compound
[3] = read-out: TR FRET IC50 1 hr, 1 hr after treatment with compound

DCN1 (DCUND1) protein PONY domain, sequence (Q96GG9 60-248): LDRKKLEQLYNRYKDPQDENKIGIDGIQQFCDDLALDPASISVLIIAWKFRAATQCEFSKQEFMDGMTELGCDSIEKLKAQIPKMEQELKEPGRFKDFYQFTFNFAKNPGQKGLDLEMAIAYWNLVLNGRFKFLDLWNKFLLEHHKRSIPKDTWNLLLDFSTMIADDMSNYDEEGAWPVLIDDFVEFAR

## C=C(CN1CCN(C2COC2)CC1)C(=O)NCc1cccc([C@H]2c3cnn(-c4ccccc4)c3N(CC)C(=O)[C@@H]2NC(=O)c2cccc(C(F)(F)F)c2)c1 [Compound I-134]
[1]
  IC50: 200 to 1000 nM
[2]
  IC50: 1000 to 3000 nM

## C=C(CN1CC2CCC(C1)O2)C(=O)NCc1cccc([C@@H]2c3cnn(-c4ccccc4)c3N(CC)C(=O)[C@H]2NC(=O)c2cccc(C(F)(F)F)c2)c1 [Compound I-136]
[1]
  IC50: ≤ 200 nM
[3]
  IC50: ≤ 200 nM

## C=C(CN1C[C@@H]2C[C@H]1CO2)C(=O)NCc1cccc([C@@H]2c3cnn(-c4ccccc4)c3N(CC)C(=O)[C@@H]2NC(=O)c2cccc(C(F)(F)F)c2)c1 [Compound I-144]
[1]
  IC50: 200 to 1000 nM
[2]
  IC50: 1000 to 3000 nM

## CCN1C(=O)[C@@H](NC(=O)c2cccc(C(F)(F)F)c2)[C@H](c2cc(F)cc(NC(=O)/C=C/CN(C)C)c2)c2cnn(-c3ccccc3)c21 [Compound I-151]
[1]
  IC50: ≤ 200 nM
[2]
  IC50: 1000 to 3000 nM

## C/C=C(\CN1CCOCC1)C(=O)NCc1cccc([C@@H]2c3cnn(-c4ccccc4)c3N(CC)C(=O)[C@H]2NC(=O)c2cccc(C(F)(F)F)c2)c1 [Compound I-152]
[1]
  IC50: ≤ 200 nM
[2]
  IC50: 1000 to 3000 nM

## C=C(CN(C)C1COC1)C(=O)NCc1cccc([C@H]2c3cnn(-c4ccccc4)c3N(CC)C(=O)[C@@H]2NC(=O)c2cccc(C(F)(F)F)c2)c1 [Compound I-154]
[1]
  IC50: 200 to 1000 nM
[2]
  IC50: 1000 to 3000 nM

## CCN1C(=O)[C@@H](NC(=O)c2cccc(C(F)(F)F)c2)[C@H](c2cccc(CNC(=O)C3=C(C(=O)OC)CC3)c2)c2cnn(-c3ccccc3)c21 [Compound I-155]
[1]
  IC50: ≤ 200 nM
[2]
  IC50: 1000 to 3000 nM

## C=C(CN1CC2(COC2)C1)C(=O)NCc1cccc([C@H]2c3cnn(-c4ccccc4)c3N(CC)C(=O)[C@H]2NC(=O)c2cccc(C(F)(F)F)c2)c1 [Compound I-156]
[1]
  IC50: 200 to 1000 nM
[2]
  IC50: 1000 to 3000 nM

## C=C(COC)C(=O)Nc1cccc([C@H]2c3c(C)nn(-c4ccccc4)c3N(CC)C(=O)[C@@H]2NC(=O)c2cccc(C(F)(F)F)c2)c1 [Compound I-158]
[1]
  IC50: ≤ 200 nM
[2]
  IC50: 1000 to 3000 nM

## C=C(CN1CC2(COC2)C1)C(=O)NCc1cccc([C@@H]2c3cnn(-c4ccccc4)c3N(CC)C(=O)[C@H]2NC(=O)c2nccc(C(F)(F)F)n2)c1 [Compound I-161]
[1]
  IC50: ≤ 200 nM
[3]
  IC50: ≤ 200 nM

## C=C(CN1CCC1)C(=O)NCc1cccc([C@@H]2c3cnn(-c4ccccc4)c3N(CC)C(=O)[C@H]2NC(=O)c2nccc(C(F)(F)F)n2)c1 [Compound I-162]
[1]
  IC50: ≤ 200 nM
[3]
  IC50: ≤ 200 nM

## C=C(CN1CCN(C2COC2)CC1)C(=O)NCc1cccc([C@@H]2c3cnn(-c4ccccc4)c3N(CC)C(=O)[C@H]2NC(=O)c2nccc(C(F)(F)F)n2)c1 [Compound I-163]
[1]
  IC50: ≤ 200 nM
[3]
  IC50: ≤ 200 nM

## C/C=C(\CN1CC2(COC2)C1)C(=O)N(C)Cc1cccc([C@@H]2c3cnn(-c4ccccc4)c3N(CC)C(=O)[C@H]2NC(=O)c2nccc(C(F)(F)F)n2)c1 [Compound I-235]
[1]
  IC50: 1000 to 3000 nM
[2]
  IC50: 1000 to 3000 nM

## C=C(CN1CC2CC1CO2)C(=O)NCc1cccc([C@@H]2c3c(C)nn(-c4ccccc4)c3N(CC)C(=O)[C@H]2NC(=O)c2cccc(C(F)(F)F)c2)c1 (some centres unmarked) [Compound I-236]
[1]
  IC50: ≤ 200 nM
[3]
  IC50: ≤ 200 nM

## C/C=C(\CN1CCN(C2COC2)CC1)C(=O)N(C)Cc1cccc([C@@H]2c3cnn(-c4ccccc4)c3N(CC)C(=O)[C@H]2NC(=O)c2ccn(C(F)(F)F)n2)c1 [Compound I-237, N-((4R,5S)-7-ethyl-4-(3-(((E)-N-methyl-2-((4-(oxetan-3-yl)piperazin-1-yl)methyl)but-2-enamido)methyl)phenyl)-6-oxo-1-phenyl-4,5,6,7-tetrahydro-1H-pyrazolo[3,4-b]pyridin-5-yl)-1-(trifluoromethyl)-1H-pyrazole-3-carboxamide]
[1]
  IC50: 200 to 1000 nM
[2]
  IC50: 1000 to 3000 nM

## CCN1C(=O)[C@@H](NC(=O)c2cccc(C(F)(F)F)c2)[C@H](c2cccc(CN(C)C/C=C/C(=O)OC(C)(C)C)c2)c2cnn(-c3ccccc3)c21 [Compound I-238, tert-butyl (E)-4-((3-((4R,5S)-7-ethyl-6-oxo-1-phenyl-5-(3-(trifluoromethyl)benzamido)-4,5,6,7-tetrahydro-1H-pyrazolo[3,4-b]pyridin-4-yl)benzyl)(methyl)amino)but-2-enoate]
[1]
  IC50: 1000 to 3000 nM
[2]
  IC50: 1000 to 3000 nM

## C=C(CN(C)C1COC1)C(=O)N(C)Cc1cccc([C@@H]2c3cnn(-c4ccccc4)c3N(CC)C(=O)[C@H]2NC(=O)c2ccn(C3CC3)n2)c1 [Compound I-239]
[2]
  IC50: 1000 to 3000 nM

## C/C=C(\CN1CCOCC1)C(=O)NCc1cccc([C@@H]2c3cnn(-c4ccccc4)c3N(CC)C(=O)[C@H]2NC(=O)c2ccn(C3CC3)n2)c1 [Compound I-241]
[1]
  IC50: ≤ 200 nM
[2]
  IC50: 1000 to 3000 nM

## C/C=C(\CN1CC2(COC2)C1)C(=O)NCc1cccc([C@@H]2c3cnn(-c4ccccc4)c3N(CC)C(=O)[C@H]2NC(=O)c2nccc(C(F)(F)F)n2)c1 [Compound I-243]
[1]
  IC50: ≤ 200 nM
[2]
  IC50: 200 to 1000 nM

## CCN1C(=O)[C@@H](NC(=O)c2cccc(C(F)(F)F)c2)[C@H](c2cccc(CNC(=O)C3=CCN(C)C3)c2)c2c(C)nn(-c3ccccc3)c21 [Compound I-244]
[1]
  IC50: ≤ 200 nM
[2]
  IC50: 1000 to 3000 nM

## CCN1C(=O)[C@@H](NC(=O)c2nccc(C(F)(F)F)n2)[C@H](c2cccc(NC(=O)/C=C/C(=O)N(C)C)c2)c2c(C)nn(-c3ccccc3)c21 [Compound I-245]
[1]
  IC50: 1000 to 3000 nM
[2]
  IC50: 1000 to 3000 nM

## C=C(CN1CCC12COC2)C(=O)NCc1cccc([C@@H]2c3cnn(-c4ccccc4)c3N(CC)C(=O)[C@H]2NC(=O)c2nccc(C(F)(F)F)n2)c1 [Compound I-246]
[1]
  IC50: ≤ 200 nM
[3]
  IC50: ≤ 200 nM

## C=C(CN1CCC12COC2)C(=O)NCc1cccc([C@@H]2c3cnn(-c4ccccc4)c3N(CC)C(=O)[C@H]2NC(=O)c2ccn(C(F)(F)F)n2)c1 [Compound I-247]
[1]
  IC50: ≤ 200 nM
[2]
  IC50: 200 to 1000 nM

## C/C=C(\CN(C)C1COC1)C(=O)NCc1cccc([C@@H]2c3cnn(-c4ccccc4)c3N(CC)C(=O)[C@H]2NC(=O)c2ccn(C(F)(F)F)n2)c1 [Compound I-248]
[1]
  IC50: ≤ 200 nM
[2]
  IC50: 200 to 1000 nM

## CCN1C(=O)[C@@H](NC(=O)c2nccc(C(F)(F)F)n2)[C@H](c2cccc(C(=O)N3CCC[C@H]3C#N)c2)c2cnn(-c3ccccc3)c21 [Compound I-249]
[1]
  IC50: 1000 to 3000 nM
[2]
  IC50: 1000 to 3000 nM

## C/C=C(\CN1CCC12COC2)C(=O)Nc1cccc([C@@H]2c3cnn(-c4ccccc4)c3N(CC)C(=O)[C@H]2NC(=O)c2nccc(C(F)(F)F)n2)c1 [Compound I-251]
[1]
  IC50: ≤ 200 nM
[2]
  IC50: 1000 to 3000 nM

## C=C(CN1CC2CC(C1)O2)C(=O)N(C)Cc1cccc([C@@H]2c3cnn(-c4ccccc4)c3N(CC)C(=O)[C@H]2NC(=O)c2ccn(C(F)(F)F)n2)c1 [Compound I-253]
[1]
  IC50: ≤ 200 nM
[2]
  IC50: 1000 to 3000 nM

## C=C(CN(C)C1COC1)C(=O)N(C)Cc1cccc([C@@H]2c3cnn(-c4ccccc4)c3N(CC)C(=O)[C@H]2NC(=O)c2nccc(C(F)(F)F)n2)c1 [Compound I-254]
[2]
  IC50: 1000 to 3000 nM

## CCN1C(=O)[C@@H](NC(=O)c2cccc(C(F)(F)F)c2)[C@H](c2cccc(CN(C)C/C=C/C(=O)N3CCCC3)c2)c2cnn(-c3ccccc3)c21 [Compound I-255]
[1]
  IC50: 1000 to 3000 nM
[2]
  IC50: 1000 to 3000 nM

## C=C(C(=O)NCc1cccc([C@@H]2c3cnn(-c4ccccc4)c3N(CC)C(=O)[C@H]2NC(=O)c2nccc(C(F)(F)F)n2)c1)C(C)N1CCC12COC2 (some centres unmarked) [Compound I-256]
[1]
  IC50: ≤ 200 nM
[2]
  IC50: 200 to 1000 nM

## C=C(CN1CC2CC(C1)O2)C(=O)N(C)Cc1cccc([C@@H]2c3cnn(-c4ccccc4)c3N(CC)C(=O)[C@H]2NC(=O)c2ccn(C3CC3)n2)c1 [Compound I-258]
[2]
  IC50: 1000 to 3000 nM

## C=C(CN1CC(F)(F)C1)C(=O)NCc1cccc([C@@H]2c3cnn(-c4ccccc4)c3N(CC)C(=O)[C@H]2NC(=O)c2nccc(C(F)(F)F)n2)c1 [Compound I-261]
[1]
  IC50: ≤ 200 nM
[2]
  IC50: 200 to 1000 nM

## CCN1C(=O)[C@@H](NC(=O)c2nccc(C(F)(F)F)n2)[C@H](c2cccc(CN3CC=CS3(=O)=O)c2)c2cnn(-c3ccccc3)c21 [Compound I-263, N-((4R,5S)-4-(3-((1,1-dioxidoisothiazol-2 (3H)-yl)methyl)phenyl)-7-ethyl-6-oxo-1-phenyl-4,5,6,7-tetrahydro-1H-pyrazolo[3,4-b]pyridin-5-yl)-4-(trifluoromethyl)pyrimidine-2-carboxamide]
[1]
  IC50: 1000 to 3000 nM
[2]
  IC50: 1000 to 3000 nM

## C=C(CN1CCCC1)C(=O)NCc1cccc([C@@H]2c3cnn(-c4ccccc4)c3N(CC)C(=O)[C@H]2NC(=O)c2cccc(C(F)(F)F)c2)c1 [Compound I-264]
[1]
  IC50: ≤ 200 nM
[3]
  IC50: ≤ 200 nM

## C=C(CN1CCOCC1)C(=O)NCc1cccc([C@@H]2c3cnn(-c4ccccc4)c3N(CC)C(=O)[C@H]2NC(=O)c2ccnn2C)c1 [Compound I-266]
[1]
  IC50: 1000 to 3000 nM
[2]
  IC50: 1000 to 3000 nM

## C=C(C(=O)NCc1cccc([C@@H]2c3cnn(-c4ccccc4)c3N(CC)C(=O)[C@H]2NC(=O)c2cccc(C(F)F)c2)c1)C(C)N(C)C1COC1 (some centres unmarked) [Compound I-277]
[1]
  IC50: ≤ 200 nM
[3]
  IC50: ≤ 200 nM

## C=C(C(=O)NCc1cccc([C@@H]2c3cnn(-c4ccccc4)c3N(CC)C(=O)[C@H]2NC(=O)c2csc(C)n2)c1)C(C)N(C)C1COC1 (some centres unmarked) [Compound I-278]
[1]
  IC50: ≤ 200 nM
[3]
  IC50: ≤ 200 nM

## C=C(CN1CC2(COC2)C1)C(=O)NCc1cccc([C@@H]2c3c(C)nn(-c4ccccc4)c3N(CC)C(=O)[C@H]2NC(=O)c2cccc(C(F)(F)F)c2)c1 [Compound I-283]
[1]
  IC50: ≤ 200 nM
[3]
  IC50: ≤ 200 nM

## C/C=C(\CN1CCOCC1)C(=O)NCc1cccc([C@@H]2c3cnn(-c4ccccc4)c3N(CC)C(=O)[C@H]2NC(=O)c2ccn(C(F)(F)F)n2)c1 [Compound I-284]
[1]
  IC50: ≤ 200 nM
[2]
  IC50: 1000 to 3000 nM

## C=C(CN1CCOCC1)C(=O)NCc1cccc([C@H]2c3c(C)nn(-c4ccccc4)c3N(CC)C(=O)[C@@H]2NC(=O)c2cccc(C(F)(F)F)c2)c1 [Compound I-285]
[1]
  IC50: ≤ 200 nM
[2]
  IC50: 1000 to 3000 nM
